The text below walks through data of patent US9686984B2, “Macrocyclic picolinamides as fungicides” (DOW AGROSCIENCES LLC, priority 2014, dated 2017).

One experiment has as its system Zymoseptoria tritici. In words: Leaf Blotch of Wheat (SEPTTR) disease control on wheat seedlings. The experiment is classed as in vivo. To be noted: for pest or weed control at 121.5 g/ha: Low Volume (121.5 g/H); for pest or weed control at 100 µg/mL: High Volume (100 ppm). The procedure: Example A: Evaluation of Fungicidal Activity: Leaf Blotch of Wheat (Mycosphaerella graminicola; Anamorph: Zymoseptoria tritici; Bayer code […]) Technical grades of materials were dissolved in acetone, which were then mixed with nine volumes of water containing 110 ppm Triton X-100. The fungicide solutions were applied onto wheat seedlings using an automated booth sprayer to run-off. All sprayed plants were allowed to air dry prior to further handling. All fungicides were evaluated using the aforementioned method for their activity vs. all target diseases, unless stated otherwise. Wheat leaf blotch and brown rust activity were also evaluated using track spray applications, in which case the fungicides were formulated as EC formulations, containing 0.1% Trycol 5941 in the spray solutions. Wheat plants (variety Yuma) were grown from seed in a greenhouse in 50% mineral soil/50% soil-less Metro mix until the first leaf was fully emerged, with 7-10 seedlings per pot. These plants were inoculated with an aqueous spore suspension of Septoria tritici either prior to or after fungicide treatments. After inoculation the plants were kept in 100% relative humidity (one day in a dark dew chamber followed by two to three days in a lighted dew chamber at 20° C.) to permit spores to germinate and infect the leaf. The plants were then transferred to a greenhouse set at 20° C. for disease to develop. When disease symptoms were fully expressed on the 1st leaves of untreated plants, infection levels were assessed on a scale of 0 to 100 percent disease severity. Percent disease control was calculated using the ratio of disease severity on treated plants relative to untreated plants.

The next experiment has as its system Puccinia triticina. In words: Wheat Brown Rust (PUCCRT) disease control on wheat seedlings. The experiment is classed as in vivo. The settings on record: for pest or weed control at 121.5 g/ha: Low Volume (121.5 g/H); for pest or weed control at 100 µg/mL: High Volume (100 ppm). The procedure:
Technical grades of materials were dissolved in acetone, which were then mixed with nine volumes of water containing 110 ppm Triton X-100. The fungicide solutions were applied onto wheat seedlings using an automated booth sprayer to run-off. All sprayed plants were allowed to air dry prior to further handling. All fungicides were evaluated using the aforementioned method for their activity vs. all target diseases, unless stated otherwise. Wheat leaf blotch and brown rust activity were also evaluated using track spray applications, in which case the fungicides were formulated as EC formulations, containing 0.1% Trycol 5941 in the spray solutions. Wheat plants (variety Yuma) were grown from seed in a greenhouse in 50% mineral soil/50% soil-less Metro mix until the first leaf was fully emerged, with 7-10 seedlings per pot. These plants were inoculated with an aqueous spore suspension of Septoria tritici either prior to or after fungicide treatments. After inoculation the plants were kept in 100% relative humidity (one day in a dark dew chamber followed by two to three days in a lighted dew chamber at 20° C.) to permit spores to germinate and infect the leaf. The plants were then transferred to a greenhouse set at 20° C. for disease to develop. When disease symptoms were fully expressed on the 1st leaves of untreated plants, infection levels were assessed on a scale of 0 to 100 percent disease severity. Percent disease control was calculated using the ratio of disease severity on treated plants relative to untreated plants. Example B: Evaluation of Fungicidal Activity: Wheat Brown Rust (Puccinia triticina; Synonym: Puccinia recondita f. sp. tritici; Bayer code PUCCRT) Wheat plants (variety Yuma) were grown from seed in a greenhouse in 50% mineral soil/50% soil-less Metro mix until the first leaf was fully emerged, with 7-10 seedlings per pot. These plants were inoculated with an aqueous spore suspension of Puccinia triticina either prior to or after fungicide treatments. After inoculation the plants were kept in a dark dew room at 22° C. with 100% relative humidity overnight to permit spores to germinate and infect the leaf. The plants were then transferred to a greenhouse set at 24° C. for disease to develop. Fungicide formulation, application and disease assessment followed the procedures as described in the Example A.

Setting [1] is: 24 h, 1 Day Protectant, read-out: SEPTTR disease control, 1 DP.
The mark [2] stands for this setting: 72 h, 3 Day Curative, read-out: SEPTTR disease control, 3 DC.
Setting [3] is: 24 h, 1 Day Protectant, read-out: PUCCRT disease control, 1 DP.
Setting [4] is: 72 h, 3 Day Curative, read-out: PUCCRT disease control, 3 DC.

Read-outs that look alike come from different tables or passages of the source.

As for `CCCC[C@H]1OCC[C@H](NC(=O)c2nccc(OC)c2OCOC(C)=O)C(=O)O[C@@H](C)[C@@H]1Cc1ccccc1` [Compound 18], the pest or weed control at 121.5 g/ha in the experiment on Zymoseptoria tritici (setting [1]), in the experiment with Zymoseptoria tritici (setting [2]), in the experiment on Puccinia triticina (setting [3]) and in the experiment on Puccinia triticina (setting [4]) was greater than 70% throughout.

Turning to `COCC[C@H]1OCC[C@H](NC(=O)c2nccc(OC)c2OC(C)=O)C(=O)O[C@@H](C)[C@@H]1Cc1ccccc1` [Compound 4], the pest or weed control at 121.5 g/ha with Zymoseptoria tritici (setting [1]), with Zymoseptoria tritici (setting [2]), with Puccinia triticina (setting [3]) and in the experiment with Puccinia triticina (setting [4]) was greater than 70% throughout.

For the molecule `COc1ccnc(C(=O)N[C@H]2CCOC[C@@H](Cc3ccc(F)cc3)[C@H](C)OC2=O)c1OC(C)=O` [Compound 5], the pest or weed control at 121.5 g/ha was greater than 70% in the experiment on Zymoseptoria tritici (setting [1]), less than 70% in the experiment with Zymoseptoria tritici (setting [2]), greater than 70% with Puccinia triticina (setting [3]) and greater than 70% with Puccinia triticina (setting [4]).

With `CCCC[C@H]1OCC[C@H](NC(=O)c2nccc(OC)c2OC(C)=O)C(=O)O[C@@H](C)[C@@H]1Cc1ccc(F)cc1` [Compound 6], the pest or weed control at 121.5 g/ha with Zymoseptoria tritici (setting [1]), with Zymoseptoria tritici (setting [2]), in the experiment with Puccinia triticina (setting [3]) and in the experiment on Puccinia triticina (setting [4]) was greater than 70% throughout.

On to `CCCC[C@H]1[C@H](C)OC(=O)[C@@H](NC(=O)c2nccc(OC)c2OCOC(=O)COCC)CCO[C@@H]1CC` [Compound 46], for which the pest or weed control at 121.5 g/ha is greater than 70% in the experiment on Zymoseptoria tritici (setting [1]), less than 70% with Zymoseptoria tritici (setting [2]), greater than 70% in the experiment on Puccinia triticina (setting [3]) and greater than 70% with Puccinia triticina (setting [4]).

For the molecule `CCOCC(=O)OCOc1c(OC)ccnc1C(=O)N[C@H]1CCO[C@H](Cc2ccccc2)[C@@H](Cc2ccccc2)[C@H](C)OC1=O` [Compound 44], the pest or weed control at 121.5 g/ha in the experiment with Zymoseptoria tritici (setting [1]), in the experiment on Zymoseptoria tritici (setting [2]), in the experiment on Puccinia triticina (setting [3]) and in the experiment with Puccinia triticina (setting [4]) was greater than 70% throughout.

`COc1ccnc(C(=O)N[C@H]2CCO[C@H](CCc3ccccc3)[C@@H](Cc3ccc(F)cc3)[C@H](C)OC2=O)c1OCOC(C)=O` [Compound 24, ((2-(((2R,3S,4S,7S)-3-(4-fluorobenzyl)-4-methyl-6-oxo-2-phenethyl-1,5-dioxonan-7-yl)carbamoyl)-4-methoxypyridin-3-yl)oxy)methyl acetate]: the pest or weed control at 121.5 g/ha in the experiment with Zymoseptoria tritici (setting [1]), in the experiment with Zymoseptoria tritici (setting [2]), in the experiment on Puccinia triticina (setting [3]) and in the experiment with Puccinia triticina (setting [4]) was greater than 70% throughout.

With `COc1ccnc(C(=O)N[C@H]2CCO[C@H](Cc3ccccc3)[C@@H](Cc3ccccc3)[C@H](C)OC2=O)c1OCOC(=O)C(C)C` [Compound 37, ((2-(((2R,3S,4S,7S)-2,3-dibenzyl-4-methyl-6-oxo-1,5-dioxonan-7-yl)carbamoyl)-4-methoxypyridin-3-yl)oxy)methyl isobutyrate], the pest or weed control at 121.5 g/ha in the experiment on Zymoseptoria tritici (setting [1]), in the experiment with Zymoseptoria tritici (setting [2]), with Puccinia triticina (setting [3]) and with Puccinia triticina (setting [4]) was greater than 70% throughout.

Consider `CCCC[C@H]1[C@H](C)OC(=O)[C@@H](NC(=O)c2nccc(OC)c2OCOC(C)=O)CCO[C@@H]1COc1ccccc1` [Compound 35], for which the pest or weed control at 121.5 g/ha with Zymoseptoria tritici (setting [1]), with Zymoseptoria tritici (setting [2]), in the experiment with Puccinia triticina (setting [3]) and in the experiment on Puccinia triticina (setting [4]) was greater than 70% throughout.

`CCOCC(=O)Oc1c(OC)ccnc1C(=O)N[C@H]1CCOC[C@@H](Cc2ccccc2)[C@H](C)OC1=O` [Compound 48, 2-(((3R,4S,7S)-3-benzyl-4-methyl-6-oxo-1,5-dioxonan-7-yl)carbamoyl)-4-methoxypyridin-3-yl 2-ethoxyacetate]: the pest or weed control at 121.5 g/ha in the experiment with Zymoseptoria tritici (setting [1]) was less than 70%; in the experiment on Zymoseptoria tritici (setting [2]), less than 70%; in the experiment with Puccinia triticina (setting [3]) it was greater than 70%; in the experiment with Puccinia triticina (setting [4]) it was greater than 70%.

As to `CCCC[C@H]1OCC[C@H](NC(=O)c2nccc(OC)c2O)C(=O)O[C@@H](C)[C@@H]1Cc1ccc(F)cc1` [Compound 56], the pest or weed control at 100 µg/mL in the experiment with Zymoseptoria tritici (setting [1]) is less than 70%; with Zymoseptoria tritici (setting [2]), greater than 70%; with Puccinia triticina (setting [3]), greater than 70%; in the experiment on Puccinia triticina (setting [4]), greater than 70%.

Regarding `COc1ccnc(C(=O)N[C@H]2CCOC[C@@H](Cc3ccccc3)[C@H](C)OC2=O)c1OC(C)=O` [Compound 1], the pest or weed control at 121.5 g/ha with Zymoseptoria tritici (setting [1]), with Zymoseptoria tritici (setting [2]), with Puccinia triticina (setting [3]) and in the experiment on Puccinia triticina (setting [4]) was greater than 70% each time.

For the molecule `CCCC[C@H]1[C@H](C)OC(=O)[C@@H](NC(=O)c2nccc(OC)c2OC(C)=O)CCO[C@@H]1CCc1ccccc1` [Compound 13], the pest or weed control at 121.5 g/ha in the experiment with Zymoseptoria tritici (setting [1]), in the experiment with Zymoseptoria tritici (setting [2]), in the experiment on Puccinia triticina (setting [3]) and with Puccinia triticina (setting [4]) was greater than 70% in each case.

Take `CC[C@H]1OCC[C@H](NC(=O)c2nccc(OC)c2OCOC(C)=O)C(=O)O[C@@H](C)[C@@H]1Cc1ccc(F)cc1` [Compound 22]: the pest or weed control at 121.5 g/ha in the experiment on Zymoseptoria tritici (setting [1]), in the experiment with Zymoseptoria tritici (setting [2]), with Puccinia triticina (setting [3]) and with Puccinia triticina (setting [4]) was greater than 70% each time.

`CCCC[C@H]1[C@H](C)OC(=O)[C@@H](NC(=O)c2nccc(OC)c2O)CCO[C@@H]1CCc1ccccc1` [Compound 64]: the pest or weed control at 100 µg/mL with Zymoseptoria tritici (setting [1]), in the experiment with Zymoseptoria tritici (setting [2]), with Puccinia triticina (setting [3]) and in the experiment with Puccinia triticina (setting [4]) was greater than 70% in each case.

Turning to `CCCC[C@H]1[C@H](C)OC(=O)[C@@H](NC(=O)c2nccc(OC)c2OCOC(C)=O)CCO[C@@H]1CC` [Compound 34], the pest or weed control at 121.5 g/ha in the experiment on Zymoseptoria tritici (setting [1]) is less than 70%; with Zymoseptoria tritici (setting [2]), less than 70%; with Puccinia triticina (setting [3]), greater than 70%; with Puccinia triticina (setting [4]) it was greater than 70%.

Regarding `COc1ccnc(C(=O)N[C@H]2CCOC[C@@H](Cc3ccccc3)[C@H](C)OC2=O)c1OCOC(C)=O` [Compound 16], the pest or weed control at 121.5 g/ha with Zymoseptoria tritici (setting [1]) is less than 70%; with Zymoseptoria tritici (setting [2]) it was less than 70%; in the experiment on Puccinia triticina (setting [3]), greater than 70%; in the experiment with Puccinia triticina (setting [4]), greater than 70%.

Take `CCCC[C@H]1[C@H](C)OC(=O)[C@@H](NC(=O)c2nccc(OC)c2OCOC(C)=O)CCO[C@@H]1CCc1ccccc1` [Compound 31]: the pest or weed control at 121.5 g/ha in the experiment on Zymoseptoria tritici (setting [1]), in the experiment with Zymoseptoria tritici (setting [2]), with Puccinia triticina (setting [3]) and in the experiment with Puccinia triticina (setting [4]) was greater than 70% each time.

Take `COCC[C@H]1OCC[C@H](NC(=O)c2nccc(OC)c2OC(C)=O)C(=O)O[C@@H](C)[C@@H]1Cc1ccc(F)cc1` [Compound 8]: the pest or weed control at 121.5 g/ha was greater than 70% in the experiment with Zymoseptoria tritici (setting [1]), less than 70% with Zymoseptoria tritici (setting [2]), greater than 70% with Puccinia triticina (setting [3]) and greater than 70% in the experiment with Puccinia triticina (setting [4]).

Take `COc1ccnc(C(=O)N[C@H]2CCO[C@H](CCc3ccccc3)[C@@H](CCC(C)C)[C@H](C)OC2=O)c1O` [Compound 59]: the pest or weed control at 100 µg/mL in the experiment with Zymoseptoria tritici (setting [1]), in the experiment with Zymoseptoria tritici (setting [2]), with Puccinia triticina (setting [3]) and with Puccinia triticina (setting [4]) was greater than 70% each time.
